From US11229623B2 (GlaxoSmithKline Intellectual Property (No.2) Limited, priority 2016, dated 2022)
Where a name gives a salt, the structure may show the parent alone.

molecular target: T1, human TRPV4 (Homo sapiens, UniProt Q9HBA0); experiment: FLIPR assay for hTRPV4 expressed in BHK cells: inhibition of Agonist Compound-induced calcium signal; assay type: cell-based; conditions: hTRPV4 in BHK/AC9 cells, FLIPR calcium signal, agonist at EC80; reported as range class; read-out: IC50
T1 construct: expressed in transfected cells; host or cells: BHK/AC9 cells transduced with BacMam virus
T1 sequence (Q9HBA0 whole entry): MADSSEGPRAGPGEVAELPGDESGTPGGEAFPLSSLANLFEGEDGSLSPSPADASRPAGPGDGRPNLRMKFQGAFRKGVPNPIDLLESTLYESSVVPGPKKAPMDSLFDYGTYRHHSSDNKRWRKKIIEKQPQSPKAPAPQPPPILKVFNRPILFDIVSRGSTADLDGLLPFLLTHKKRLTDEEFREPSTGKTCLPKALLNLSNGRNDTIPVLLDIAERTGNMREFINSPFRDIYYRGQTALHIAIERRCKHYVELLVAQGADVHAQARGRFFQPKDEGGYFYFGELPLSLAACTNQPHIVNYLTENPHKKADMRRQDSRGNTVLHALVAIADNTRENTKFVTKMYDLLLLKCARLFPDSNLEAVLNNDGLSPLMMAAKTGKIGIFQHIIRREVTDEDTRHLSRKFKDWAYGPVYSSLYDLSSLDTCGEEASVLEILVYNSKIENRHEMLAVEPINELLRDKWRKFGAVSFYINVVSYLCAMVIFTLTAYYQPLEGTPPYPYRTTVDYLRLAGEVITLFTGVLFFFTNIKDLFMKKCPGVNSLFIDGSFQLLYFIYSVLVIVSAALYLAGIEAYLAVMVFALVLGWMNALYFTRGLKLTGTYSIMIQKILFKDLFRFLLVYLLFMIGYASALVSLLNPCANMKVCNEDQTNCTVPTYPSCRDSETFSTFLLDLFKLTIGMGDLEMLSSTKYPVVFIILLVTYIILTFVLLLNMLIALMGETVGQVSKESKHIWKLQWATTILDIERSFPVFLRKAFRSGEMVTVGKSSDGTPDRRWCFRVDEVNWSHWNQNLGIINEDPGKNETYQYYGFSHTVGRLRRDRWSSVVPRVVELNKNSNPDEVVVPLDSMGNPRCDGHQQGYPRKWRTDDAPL
In short: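 BHK/AC9 cells transduced with BacMam human TRPV4 (MOI 78), plated 15,000 per well and cultured 24 h at 37° C. Loaded with 2 μM Fluo-4 AM plus 500 μM Brilliant Black in HBSS for 1-1.5 h at room temperature in the dark; intracellular calcium signal read by FLIPR fluorescence.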

| SMILES | IC50 [nM] |
| --- | --- |
| N#Cc1ccc(O[C@H]2CN(S(=O)(=O)c3ccc(C(F)(F)F)nc3)C[C@@]2(O)CO)cc1F [Example 5, 2-fluoro-4-(((3S,4R)-4-hydroxy-4-(hydroxymethyl)-1-((6-(trifluoromethyl)pyridin-3-yl)sulfonyl)pyrrolidin-3-yl)oxy)benzonitrile] | 100 to 1000 |
| N#Cc1cc(C(F)(F)F)ccc1S(=O)(=O)N1C[C@H](Oc2ccc3nonc3c2)[C@](O)(CO)C1 [Example 7, 2-(((3R,4S)-4-(benzo[c][1,2,5]oxadiazol-5-yloxy)-3-hydroxy-3-(hydroxymethyl)pyrrolidin-1-yl)sulfonyl)-5-(trifluoromethyl)benzonitrile] | 0.1 to 10 |
| N#Cc1ccc(O[C@H]2CN(S(=O)(=O)c3ccc(C(F)(F)F)cc3Cl)C[C@@]2(O)CO)cn1 [Example 74, 5-(((3S,4R)-1-((2-chloro-4-(trifluoromethyl)phenyl)sulfonyl)-4-hydroxy-4-(hydroxymethyl)pyrrolidin-3-yl)oxy)picolinonitrile] | 10 to 100 |
| N#CCc1ccc(O[C@H]2CN(S(=O)(=O)c3ccc(C(F)(F)F)cc3C#N)C[C@@]2(O)CO)cc1 [Example 32, 2-(((3R,4S)-4-(4-(cyanomethyl)phenoxy)-3-hydroxy-3-(hydroxymethyl)pyrrolidin-1-yl)sulfonyl)-5-(trifluoromethyl)benzonitrile] | 10 to 100 |
| N#Cc1cc(C(F)(F)F)ccc1S(=O)(=O)N1C[C@H](Oc2cnc(C(F)(F)F)nc2)[C@](O)(CO)C1 [Example 55, 2-(((3R,4S)-3-hydroxy-3-(hydroxymethyl)-4-((2-(trifluoromethyl)pyrimidin-5-yl)oxy)pyrrolidin-1-yl)sulfonyl)-5-(trifluoromethyl)benzonitrile] | 10 to 100 |
| N#Cc1cc(C(F)(F)F)ccc1S(=O)(=O)N1C[C@H](Oc2ccccc2)[C@](O)(CO)C1 [Example 46, 2-(((3R,4S)-3-hydroxy-3-(hydroxymethyl)-4-phenoxypyrrolidin-1-yl)sulfonyl)-5-(trifluoromethyl)benzonitrile] | 10 to 100 |
| N#Cc1ccc(O[C@H]2CN(S(=O)(=O)c3ccc(Cl)cc3Cl)C[C@@]2(O)CO)cn1 [Example 73, 5-(((3S,4R)-1-((2,4-dichlorophenyl)sulfonyl)-4-hydroxy-4-(hydroxymethyl)pyrrolidin-3-yl)oxy)picolinonitrile] | 10 to 100 |
| COc1ccc(O[C@H]2CN(S(=O)(=O)c3ccc(C(F)(F)F)cc3C#N)C[C@@]2(O)CO)cc1F [Example 43, 2-(((3R,4S)-4-(3-fluoro-4-methoxyphenoxy)-3-hydroxy-3-(hydroxymethyl)pyrrolidin-1-yl)sulfonyl)-5-(trifluoromethyl)benzonitrile] | 10 to 100 |
| N#Cc1ccc(S(=O)(=O)N2C[C@H](Oc3ccc(C#N)c(F)c3)[C@](O)(CO)C2)cn1 [Example 79, 5-(((3R,4S)-4-(4-cyano-3-fluorophenoxy)-3-hydroxy-3-(hydroxymethyl)pyrrolidin-1-yl)sulfonyl)picolinonitrile] | 10 to 100 |
| CC(C)Oc1cc(C#N)ccc1O[C@H]1CN(S(=O)(=O)c2ccc(C(F)(F)F)cc2C#N)C[C@@]1(O)CO [Example 44, 2-(((3R,4S)-4-(4-cyano-2-isopropoxy-phenoxy)-3-hydroxy-3-(hydroxymethyl)pyrrolidin-1-yl)sulfonyl)-5-(trifluoromethyl)benzonitrile] | 0.1 to 10 |
| N#Cc1ccc2cc(O[C@H]3CN(S(=O)(=O)c4ccc(C(F)(F)F)cc4C#N)C[C@@]3(O)CO)ccc2c1 [Example 18, 6-(((3S,4R)-1-((2-cyano-4-(trifluoromethyl)phenyl)sulfonyl)-4-hydroxy-4-(hydroxymethyl)pyrrolidin-3-yl)oxy)-2-naphthonitrile] | 10 to 100 |

Further lines, results first:

| IC50 [nM] | SMILES |
| --- | --- |
| 10 to 100 | N#Cc1ccccc1S(=O)(=O)N1C[C@H](Oc2ccc(Cl)cc2)[C@](O)(CO)C1 [Example 107, 2-(((3R,4S)-4-(4-chlorophenoxy)-3-hydroxy-3-(hydroxymethyl)pyrrolidin-1-yl)sulfonyl)benzonitrile] |
| 0.1 to 10 | N#Cc1ccc(O[C@H]2CN(S(=O)(=O)c3ccc(Cl)nc3Cl)C[C@@]2(O)CO)cc1F [Example 92, 4-(((3S,4R)-1-((2,6-dichloropyridin-3-yl)sulfonyl)-4-hydroxy-4-(hydroxymethyl)pyrrolidin-3-yl)oxy)-2-fluorobenzonitrile] |
| 0.1 to 10 | N#Cc1ccc(O[C@H]2CN(S(=O)(=O)c3ccc(F)cc3C#N)C[C@]2(O)CO)cc1F [Example 138, 4-(((3S,4S)-1-((2-cyano-4-fluorophenyl)sulfonyl)-4-hydroxy-4-(hydroxymethyl)pyrrolidin-3-yl)oxy)-2-fluorobenzonitrile] |
| 10 to 100 | N#Cc1ccc(O[C@H]2CN(S(=O)(=O)c3ccc(C(F)F)cn3)C[C@@]2(O)CN)cc1F [Example 244, 4-(((3S,4S)-4-(aminomethyl)-1-((5-(difluoromethyl)pyridin-2-yl)sulfonyl)-4-hydroxpyrrolidin-3-yl)oxy)-2-fluorobenzonitrile] |
| 0.1 to 10 | N#Cc1ccc(O[C@H]2CN(S(=O)(=O)c3ccc(Cl)cc3C#N)C[C@]2(O)CNCCO)cc1F [Example 236, 4-(((3S,4R)-1-((4-chloro-2-cyanophenyl)sulfonyl)-4-hydroxy-4-(((2-hydroxyethyl)amino)methyl)pyrrolidin-3-yl)oxy)-2-fluorobenzonitrile, 2,2,2-trifluoroacetate] |
| 0.1 to 10 | N#Cc1ccc(O[C@H]2CN(S(=O)(=O)c3ccc(Cl)cc3C#N)C[C@]2(O)CN)cc1F [Example 235, 4-(((3S,4R)-4-(aminomethyl)-1-((4-chloro-2-cyanophenyl)sulfonyl)-4-hydroxypyrrolidin-3-yl)oxy)-2-fluorobenzonitrile, Hydrochloride] |
| 10 to 100 | COc1cc(C#N)ccc1S(=O)(=O)N1C[C@H](Oc2ccc(C#N)c(F)c2)[C@](O)(CO)C1 [Example 104, 4-(((3S,4R)-1-((4-cyano-2-methoxyphenyl)sulfonyl)-4-hydroxy-4-(hydroxymethyl)pyrrolidin-3-yl)oxy)-2-fluorobenzonitrile] |
| 10 to 100 | N#Cc1cc(OCC(F)(F)F)c(O[C@H]2CN(S(=O)(=O)c3ccc(Cl)cn3)C[C@]2(O)CO)cc1F [Example 215, 4-(((3S,4S)-1-((5-chloropyridin-2-yl)sulfonyl)-4-hydroxy-4-(hydroxymethyl)pyrrolidin-3-yl)oxy)-2-fluoro-5-(2,2,2-trifluoroethoxy)benzonitrile] |
| 0.1 to 10 | N#Cc1ccc(O[C@H]2CN(S(=O)(=O)c3ccccc3I)C[C@@]2(O)CO)cc1F [Example 119, 2-fluoro-4-(((3S,4R)-4-hydroxy-4-(hydroxymethyl)-1-((2-iodophenyl)sulfonyl)pyrrolidin-3-yl)oxy)benzonitrile] |
| 10 to 100 | Cc1nc(C(F)(F)F)ccc1S(=O)(=O)N1C[C@H](Oc2ccc(C#N)c(F)c2)[C@](O)(CO)C1 [Example 83, 2-fluoro-4-(((3S,4R)-4-hydroxy-4-(hydroxymethyl)-1-((2-methyl-6-(trifluoromethyl)pyridin-3-yl)sulfonyl)pyrrolidin-3-yl)oxy)benzonitrile] |
| 0.1 to 10 | C#Cc1ccc(S(=O)(=O)N2C[C@H](Oc3ccc(C#N)c(F)c3)[C@](O)(CO)C2)c(C#N)c1 [Example 220, 4-(((3S,4R)-1-((2-cyano-4-ethynylphenyl)sulfonyl)-4-hydroxy-4-(hydroxymethyl)pyrrolidin-3-yl)oxy)-2-fluorobenzonitrile] |
